Experiments:
[1] = Tested for Lipophilicity of the compound; assay type: physicochemical; settings: octanol/water
[2] = target: T1, Type-1 angiotensin II receptor (Oryctolagus cuniculus, UniProt P34976); assay: Binding affinity against Angiotensin II type 1 Receptor in rabbit aortic tissue; assay type: tissue-based, Aorta
T1 sequence (P34976 whole entry): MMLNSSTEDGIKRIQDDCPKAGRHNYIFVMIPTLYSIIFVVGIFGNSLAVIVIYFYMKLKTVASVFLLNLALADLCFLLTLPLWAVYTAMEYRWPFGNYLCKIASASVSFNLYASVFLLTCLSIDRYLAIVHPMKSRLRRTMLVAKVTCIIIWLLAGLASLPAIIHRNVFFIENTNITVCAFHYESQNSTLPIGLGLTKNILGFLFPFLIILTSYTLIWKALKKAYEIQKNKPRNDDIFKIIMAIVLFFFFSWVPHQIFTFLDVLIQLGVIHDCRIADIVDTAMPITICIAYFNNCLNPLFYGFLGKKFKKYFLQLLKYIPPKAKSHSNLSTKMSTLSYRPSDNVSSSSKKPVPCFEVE

[3] = target: T1, Type-1 angiotensin II receptor; assay: Ability to displace [125I]Sar1-Ile8-AII from Angiotensin II receptor, type 1 in rabbit aorta in presence of 0.2% bovine serum albumin (BSA) was determined in vitro; assay type: tissue-based

| SMILES | Lipophilicity [1] | IC50 [2] [µM] | IC50 [3] [µM] |
| --- | --- | --- | --- |
| CCc1nc2ccc(C)cc2c(=O)n1Cc1ccc(-c2ccccc2-c2nn[nH]n2)cc1 | – | > 0.1 | – |
| CCCCc1nc2c(C)cccc2c(=O)n1Cc1ccc(-c2ccccc2C(=O)O)cc1 | – | 1.4 | – |
| CCCCc1nc2cccc(C)c2c(=O)n1Cc1ccc(-c2ccccc2C(=O)O)cc1 | – | 0.37 | – |
| CCCCc1nc2ccccc2c(=O)n1Cc1ccc(-c2ccccc2C(=O)O)cc1 | – | 0.2 | – |
| CCCCc1nc2ccc(C)cc2c(=O)n1Cc1ccc(-c2ccccc2C(=O)O)cc1 | – | 0.092 | – |
| CCCCc1nc2ccc(I)cc2c(=O)n1Cc1ccc(-c2ccccc2-c2nnn[nH]2)cc1 | 1.12 | – | 0.012 |
| CCCCc1nc2ccc(C(F)(F)F)cc2c(=O)n1Cc1ccc(-c2ccccc2-c2nn[nH]n2)cc1 | 0.88 | – | 0.012 |
| CCCCc1nc2cc(C)ccc2c(=O)n1Cc1ccc(-c2ccccc2C(=O)O)cc1 | – | 0.37 | – |
| CCCCc1nc2cc3ccccc3cc2c(=O)n1Cc1ccc(-c2ccccc2C(=O)O)cc1 | – | 0.38 | – |

More lines, in order of falling IC50 [2], values ahead:

| Lipophilicity [1] | IC50 [2] [µM] | IC50 [3] [µM] | SMILES |
| --- | --- | --- | --- |
| 0.71 | 0.029 | – | CCCCc1nc2ccc(Cl)cc2c(=O)n1Cc1ccc(-c2ccccc2-c2nn[nH]n2)cc1 |
| -0.28 | 0.028 | – | CCCCc1nc2ccc([N+](=O)[O-])cc2c(=O)n1Cc1ccc(-c2ccccc2-c2nn[nH]n2)cc1 |
| 0.14 | 0.026 | – | CCCCc1nc2ccc(F)cc2c(=O)n1Cc1ccc(-c2ccccc2-c2nn[nH]n2)cc1 |
| – | 0.015 | – | CCCCc1nc2cc(Cl)ccc2c(=O)n1Cc1ccc(-c2ccccc2-c2nn[nH]n2)cc1 |
| – | 0.013 | – | CCCCc1nc2cc(OC)c(OC)cc2c(=O)n1Cc1ccc(-c2ccccc2-c2nnn[nH]2)cc1 |
| – | 0.01 | – | CCCCc1nc2cccc(F)c2c(=O)n1Cc1ccc(-c2ccccc2-c2nn[nH]n2)cc1 |
| 0 | 0.01 | – | CCCCc1nc2ccccc2c(=O)n1Cc1ccc(-c2ccccc2-c2nn[nH]n2)cc1 |
| – | 0.01 | – | CCCc1nc2ccc(C)cc2c(=O)n1Cc1ccc(-c2ccccc2-c2nn[nH]n2)cc1 |
| -0.97 | 0.009 | – | CCCCc1nc2ccc(NC(C)=O)cc2c(=O)n1Cc1ccc(-c2ccccc2-c2nnn[nH]2)cc1 |
| – | 0.0064 | – | CCCCCc1nc2ccc(C)cc2c(=O)n1Cc1ccc(-c2ccccc2-c2nnn[nH]2)cc1 |
| -0.02 | 0.005 | – | CCCCc1nc2ccc(OC)cc2c(=O)n1Cc1ccc(-c2ccccc2-c2nnn[nH]2)cc1 |
| 0.56 | 0.004 | – | CCCCc1nc2ccc(C)cc2c(=O)n1Cc1ccc(-c2ccccc2-c2nnn[nH]2)cc1 |
| – | 0.002 | – | CCCCC(=O)Nc1ccc2nc(CCCC)n(Cc3ccc(-c4ccccc4-c4nnn[nH]4)cc3)c(=O)c2c1 |
| -1.23 | 0.0013 | – | CCCCc1nc2ccc(N)cc2c(=O)n1Cc1ccc(-c2ccccc2-c2nnn[nH]2)cc1 |

— ChEMBL document CHEMBL1126508, “Quinazolinones 1: design and synthesis of potent quinazolinone- containing AT1-selective angiotensin-II receptor antagonists” (Bioorg Med Chem Lett, 1993)
